Measurements published in patent US20110129544A1, “Bone/Cartilage Formation-Stimulation Agent” (priority 2007, published 2011).

Tests used:
[1] = system: osteoblastic cell strain MC3T3-E1; test: Calcified matrix formation (alizarin red) of cultured osteoblastic cell on differentiation medium; format: cell-based, mouse
Method: Using an osteoblastic cell strain MC3T3-E1 originating from a mouse skull bone, an action to osteoblactic cell differentiation was checked. MC3T3-E1 cell was cultured on α-MEM (growth medium) containing 5% fetal bovine serum (FBS) and 10 μg/ml gentamicin. When the cell became confluent, the cell was collected using 0.25% trypsin solution, and was subjected to seeding to a 48-well plate at 1×10^4/0.5 mL/well with the growth medium. After 24 hours passed from the cultivation, the culture medium was replaced with a growth medium (differentiation medium) containing 50 μg/mL ascorbic acid, 10 mmol/L β-glycerosphoric acid, and 10 nmol/L dexamethasone. At the same time, CS-A, CS-B, CS-C, CS-E, CS-H or CPS was added to the medium. After 16 days passed from when the medium was replaced with the differentiation medium, a culture supernatant was eliminated, the cell was rinsed by PBS (−), dissolved by 1% Nonidet P-40 (NP-40, registered trademark), and a cell lysate was collected. The cell on a plate was fixed by 15% formalin, a calcified matrix was dyed by 40 mmol/L alizarin red dyeing (pH 4.2)[…], and rinsed by pure water. Alizarin red pigments in the plate were dissolved by 10% formic acid, and light absorption at a wavelength of 415 nm was observed.
An osteoblastic cell strain MC3T3-E1 was cultured on α-MEM (growth medium) containing 5 FBS and 10 μg/mL gentamicin. When the cell became confluent, the cell was collected by 0.25 trypsin solution, and was subjected to seeding to a 96-well plate at 1×10^4/0.2 mL/well with the growth medium. After 24 hours incubation, the culture medium was replaced with a growth medium (differentiation medium) containing 50 μg/mL ascorbic acid, 10 mmol/L β-glycerophosphoric acid, and 10 nmol/L dexamethasone. At the same time, CS-A, CS-C or CS-D dissolved and diluted by a phosphate buffered saline (PBS (−)) was added to the medium. After 10 days passed from when the medium was replaced with the differentiation medium, a culture supernatant was eliminated, the cell was rinsed by PBS (−), and dissolved by 1% NP-40 (registered trademark), and a cell lysate was collected. The cell on the plate was fixed by 15% formalin, a calcified matrix was dyed by 40 mmol/L alizarin red dyeing (pH 4.2) liquid, and then rinsed by pure water. Alizarin red pigments in the plate were dissolved by 10% formic acid, and light absorption at a wavelength of 415 nm was observed.

[2] = system: osteoblastic cell strain MC3T3-E1; test: Growth of cultured osteoblastic cell (DNA amount, PicoGreen); format: cell-based, mouse; settings: MC3T3-E1, differentiation medium, 16 days (FIG. 4)
Method: An osteoblastic cell strain MC3T3-E1 was cultured on α-MEM (growth medium) containing 5% FBS and 10 μg/mL gentamicin. When the cell became confluent, the cell was collected by 0.25% trypsin solution, and was subjected to seeding to a 96-well plate at 4×10^4/0.2 mL/well with the growth medium. After 24 hours incubation, the culture medium was replaced with a growth medium (differentiation medium) containing 50 μg/mL ascorbic acid, 10 mmol/L β-glycerophosphoric acid, and 10 nmol/L dexamethasone. At the same time, CS-A, CS-C, CS-D or CS-E used in the first example and the second example was dissolved and diluted by a phosphate buffered saline (PBS (−)), and then added to the medium. After 16 days passed from when the medium was replaced with the differentiation medium, a culture supernatant was eliminated, the cell was rinsed by PBS (−), and dissolved by 1% NP-40, and a cell lysate was collected.
Regarding a measurement of a DNA amount, PicoGreen dsDNA Quantitation kit (made by Molecular Probes corporation) was used, and a DNA amount was measured from a fluorescence intensity (Ex: wavelength 485 nm, Em: wavelength 535 nm) with a Calf Thymus DNA (Sigma) being as a standard.

[3] = system: osteoblastic cell strain MC3T3-E1; test: Alkaline phosphatase (ALP) activity of cultured osteoblastic cell; format: cell-based, mouse; settings: MC3T3-E1, differentiation medium, 8 days, p-NP amount (FIG. 3)
Method: An osteoblastic cell strain MC3T3-E1 was cultured on α-MEM (growth medium) containing 5% FBS and 10 μg/mL gentamicin. When the cell became confluent, the cell was collected by 0.25 trypsin solution, and was subjected to seeding to a 48-well plate at 8×10^4/0.5 mL/well with the growth medium. After 24 hours incubation, the culture medium was replaced with a growth medium (differentiation medium) containing 50 μg/mL ascorbic acid, 10 mmol/L β-glycerophosphoric acid, and 10 nmol/L dexamethasone. At the same time, CS-C or CS-E used in the first example was dissolved and diluted by a phosphate buffered saline (PBS (−)), and then added to the medium. After 8 days passed from when the medium was replaced with the differentiation medium, a culture supernatant was eliminated, the cell was rinsed by PBS (−), and dissolved by 1% NP-40 (registered trademark), and a cell lysate was collected.
Regarding alkaline phosphatase (ALP) activity, a p-nitrophenol (p-NP) amount created by mixing the cell lysate with p-nitrophenylphosphate (Sigma) and by performing incubation on it for 10 minutes at 37° C. was measured at OD 415 nm, and a p-NP amount was calculated from an analytical curve.

MC3T3-E1 cell [4] = test: Growth of osteoblastic cell cultured on calcium phosphate (OCP or HA coating), DNA amount; format: cell-based, mouse
Method: (§1) Octacalcium phosphate (OCP) and hydroxyapatite (HA, apaceram, made by pentax corporation) were broken into powders by a mortar, and powders which passed through a stainless mesh (pore size: 53 μm) were used for the test. 1 mg of OCP or HA powders were suspended in 1 mL of distilled water, and added to a 48-well plate 150 μL by 150 μL (0.15 mg/well). It was dried for one night at 80° C. by a dryer, sterilized by 70% ethanol, and used for the test.
(§2) An MC3T3-E1 cell was cultured on α-MEM (growth medium) containing 5% FBS and 10 μg/mL gentamicin. When the cell became confluent, the cell was collected by 0.25 trypsin solution, and was subjected to seeding to a 48-well plate at 8×10^4/0.5 […] with the growth medium. After 24 hours incubation, the culture medium was replaced with a growth medium (differentiation medium) containing 50 μg/mL ascorbic acid, 10 mmol/L β-glycerophosphoric acid, and 10 nmol/L dexamethasone, while at the same time CS-E was added. […] Regarding a measurement of a DNA amount, PicoGreen dsDNA Quantitation kit (made by Molecular Probes corporation) was used, and a DNA amount was measured from a fluorescence intensity (Ex: wavelength 485 nm, Em: wavelength 535 nm) with a Calf Thymus DNA (Sigma) being as a standard.

[5] = system: swine knee joint cartilage cell; test: Collagen synthesis of cultured cartilage cell in alginate gel beads (three-dimensional culturing); format: cell-based; settings: 100 μg/mL
From the text: A cartilage cell was separated from a swine knee joint cartilage as follow. A posterior leg of an LWD-kind pig about 1-year-old was purchased from SIMODA animal industry limited private company. After a knee joint was exposed, a joint cartilage of a femur was acquired aseptically. Thereafter, a cell originating from a joint cartilage (hereinafter, “cartilage cell”) was separated in accordance with a technique of Mok S. S. et al (J. Biol. Chem., 1994, 269, 33021 to 33027) while modifying some parts of such a technique.
The acquired cartilage was put into DMEM/F-12 culture medium (a culture medium which contained Dulbecco's modified eagle and Ham's F12 at 1:1) containing 0.4% actinase (made by KAKEN pharmaceutical corporation) and 10 μg/mL gentamicin (made by Invitrogen corporation), and processed for 1 hour at 37° C. while being stirred by a stirrer under a condition where 5% of CO2 was present. After the culture medium was eliminated, a culture media containing 0.025% collagenase (made by Roche corporation) and 5% FBS (made by Biological Industries corporation) was added to a residue, and it was digested for 16 hours at 37° C. under the presence of 5% of CO2. After digested, the cell was rinsed, collected by 70 μm cell strainer (made by Becton Dickinson corporation), and a number of cells were measured using a counting chamber. […]

MC3T3-E1 cell [6] = test: Calcification of osteoblastic cell cultured on calcium phosphate (OCP or HA coating); format: cell-based, mouse
Method: as §1
as §2, with “medium.” for “medium. After 24 hours incubation, the culture medium was replaced with a growth medium (differentiation medium) containing 50 μg/mL ascorbic acid, 10 mmol/L β-glycerophosphoric acid, and 10 nmol/L dexamethasone, while at the same time CS-E was added.”
Regarding an evaluation of calcification, a calcified matrix produced by the cell on the plate was fixed by 15% formalin, dyed by 40 mmol/L alizarin red dyeing (pH 4.2) liquid, rinsed by deionization water, dissolved by 10% formic acid, and then light absorption was measured.

[7] = 16th day of cultivation, 48-well plate, absorption 415 nm (FIG. 1)
[8] = 10 days, 96-well plate, absorption 415 nm (FIG. 2)

Substance	formation of a calcified matrix dyed by alizarin red [1, 7]	formation of a calcified matrix dyed by alizarin red [1, 8]	growth of an osteoblastic cell (DNA amount) [2]	further results
Chondroitin sulfate A [CS-A]	not observed	not observed	not observed	–
chondroitin sulfate B [CS-B]	not observed	–	–	–
chondroitin sulfate C [CS-C, reference compound]	not observed	not observed	not observed	ALP activity (osteoblastic cell differentiation marker) [3]: not observed
chondroitin sulfate D [CS-D]	–	significantly promoted	not observed	–
chondroitin sulfate E [CS-E]	significantly promoted	–	significantly promoted	growth of an osteoblastic cell (DNA amount) (MC3T3-E1 cell [4]; HA coating (FIG. 6B)): not significant but a cell growth promoting action was observed; growth of an osteoblastic cell (DNA amount) (MC3T3-E1 cell [4]; OCP coating, 16th day of cultivation (FIG. 6A)): significantly promoted; ALP activity (osteoblastic cell differentiation marker) [3]: significantly enhanced; collagen content per twenty alginate gel beads ([5]; 6 days three-dimensional culturing (FIG. 7)): significantly increased; collagen content per DNA ([5]; 6 days three-dimensional culturing (FIG. 8)): significantly increased; production of a calcified matrix dyed by alizarin red (MC3T3-E1 cell [6]; HA coating, 12th day of cultivation (FIG. 5B)): promoted production of a calcified matrix; production of a calcified matrix dyed by alizarin red (MC3T3-E1 cell [6]; OCP coating, 16th day of cultivation (FIG. 5A)): promoted production of a calcified matrix
chondroitin sulfate H [CS-H]	significantly promoted	–	–	–
polysulfated chondroitin sulfate [CPS]	significantly promoted	–	–	–
